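Following 48 hours of exposure in 96-well plates, responses at five concentrations were used to interpolate endpoints linearly. GI50 = concentration required for 50% inhibition of growth.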 Activity calls are given as the source filed them. Rule as the data show it: active = GI50 up to about 1.1 µM and inactive = higher.
Key:
Assay in all cases: NCI anticancer screen, dose series, 48 h
UACC-257 = system: UACC-257
MDA-MB-435 = system: MDA-MB-435
COLO 205 = system: COLO 205
UO-31 = system: UO-31
HCC 2998 = system: HCC 2998
HOP-92 = system: HOP-92
NCI-H226 = system: NCI-H226
Hs-578T = system: Hs-578T
786-0 = system: 786-0
OVCAR-5 = system: OVCAR-5
DU-145 = system: DU-145
A498 = system: A498
MDA-MB-231 = system: MDA-MB-231
SNB-75 = system: SNB-75
CAKI-1 = system: CAKI-1
HCT-15 = system: HCT-15
HOP-62 = system: HOP-62
T47D = system: T47D
TK-10 = system: TK-10

Structure (SMILES): O=C1c2cccnc2-c2nccc3c2c1nc1ccc(Br)cc13
- GI50 (UACC-257): 0.0536 µM (active)
- GI50 (MDA-MB-435): 0.0887 µM (active)
- GI50 (COLO 205): 0.438 µM (active)
- GI50 (UO-31): 0.0557 µM (active)
- GI50 (HCC 2998): 0.164 µM (active)
- GI50 (HOP-92): 0.102 µM (active)
- GI50 (NCI-H226): 0.0199 µM (active)
- GI50 (Hs-578T): 0.12 µM (active)
- GI50 (786-0): 0.0248 µM (active)
- GI50 (OVCAR-5): 0.106 µM (active)
- GI50 (DU-145): 0.0225 µM (active)
- GI50 (A498): 0.0853 µM (active)
- GI50 (MDA-MB-231): < 0.0201 µM (active)
- GI50 (SNB-75): 0.129 µM (active)
- GI50 (CAKI-1): 0.0536 µM (active)
- GI50 (HCT-15): 0.045 µM
- GI50 (HOP-62): 0.031 µM (active)
- GI50 (T47D): 0.0789 µM (active)
- GI50 (TK-10): 0.273 µM (active)

Structure (SMILES): O=C(c1cc2c(c3ccccc13)NC1(CCCCC1)N=C2C(F)(F)F)C(F)(F)F
- GI50 (UACC-257): 3.17 µM (inactive)
- GI50 (MDA-MB-435): 3.23 µM (inactive)
- GI50 (COLO 205): 5.57 µM (inactive)
- GI50 (UO-31): 3.62 µM (inactive)
- GI50 (HCC 2998): 2.29 µM (inactive)
- GI50 (HOP-92): 3.69 µM (inactive)
- GI50 (NCI-H226): 4.41 µM (inactive)
- GI50 (Hs-578T): 6.32 µM (inactive)
- GI50 (786-0): 3.82 µM (inactive)
- GI50 (OVCAR-5): 8.83 µM (inactive)
- GI50 (DU-145): 5.35 µM (inactive)
- GI50 (A498): 7.83 µM (inactive)
- GI50 (MDA-MB-231): 3.14 µM (inactive)
- GI50 (SNB-75): 4.7 µM (inactive)
- GI50 (CAKI-1): 3.35 µM (inactive)
- GI50 (HCT-15): 5.07 µM
- GI50 (HOP-62): 40.5 µM (inactive)
- GI50 (T47D): 2.93 µM (inactive)
- GI50 (TK-10): 4.01 µM (inactive)

Structure (SMILES): CC(=O)Nc1ccc2c3c(cc(O)c2c1)N(C(=O)CCCCCCC(=O)Nc1ccc2c4c(cc(O)c2c1)N(C(=O)OC(C)(C)C)CC4CCl)CC3CCl (stereo not given)
- GI50 (UACC-257): 0.148 µM (active)
- GI50 (MDA-MB-435): 0.132 µM (active)
- GI50 (COLO 205): 0.103 µM (active)
- GI50 (UO-31): 1.04 µM (active)
- GI50 (HCC 2998): 0.0502 µM (active)
- GI50 (HOP-92): 0.158 µM (active)
- GI50 (NCI-H226): 0.144 µM (active)
- GI50 (Hs-578T): 0.264 µM (active)
- GI50 (786-0): 0.0757 µM (active)
- GI50 (OVCAR-5): 0.109 µM (active)
- GI50 (DU-145): 0.0211 µM (active)
- GI50 (A498): 0.0244 µM (active)
- GI50 (MDA-MB-231): 0.319 µM (active)
- GI50 (SNB-75): 0.0776 µM (active)
- GI50 (CAKI-1): 1.02 µM (active)
- GI50 (HCT-15): 2.64 µM
- GI50 (HOP-62): 0.091 µM (active)
- GI50 (T47D): 0.0573 µM (active)
- GI50 (TK-10): 0.344 µM (active)

Structure (SMILES): O=C(O)C1C2CCC(C2)C1c1ccccc1 (stereo not given)
- GI50 (UACC-257): > 100 µM (inactive)
- GI50 (MDA-MB-435): > 100 µM (inactive)
- GI50 (COLO 205): > 100 µM (inactive)
- GI50 (UO-31): > 100 µM (inactive)
- GI50 (HCC 2998): > 100 µM (inactive)
- GI50 (HOP-92): > 100 µM (inactive)
- GI50 (NCI-H226): > 100 µM (inactive)
- GI50 (Hs-578T): > 100 µM (inactive)
- GI50 (786-0): > 100 µM (inactive)
- GI50 (OVCAR-5): > 100 µM (inactive)
- GI50 (DU-145): > 100 µM (inactive)
- GI50 (A498): > 100 µM (inactive)
- GI50 (MDA-MB-231): > 100 µM (inactive)
- GI50 (SNB-75): > 100 µM (inactive)
- GI50 (CAKI-1): > 100 µM (inactive)
- GI50 (HCT-15): > 100 µM
- GI50 (HOP-62): > 100 µM (inactive)
- GI50 (T47D): > 100 µM (inactive)
- GI50 (TK-10): > 100 µM (inactive)

Structure (SMILES): Cc1c([N+](=O)[O-])oc2ccc3ccccc3c12
- GI50 (UACC-257): 78 µM (inactive)
- GI50 (MDA-MB-435): 12.4 µM (inactive)
- GI50 (COLO 205): 6.79 µM (inactive)
- GI50 (UO-31): 34.6 µM (inactive)
- GI50 (HCC 2998): 25.1 µM (inactive)
- GI50 (HOP-92): > 100 µM (inactive)
- GI50 (NCI-H226): > 100 µM (inactive)
- GI50 (Hs-578T): > 100 µM (inactive)
- GI50 (786-0): 18.1 µM (inactive)
- GI50 (OVCAR-5): > 100 µM (inactive)
- GI50 (DU-145): 7.74 µM (inactive)
- GI50 (A498): 22.8 µM (inactive)
- GI50 (MDA-MB-231): > 100 µM (inactive)
- GI50 (SNB-75): 28.5 µM (inactive)
- GI50 (CAKI-1): 11.9 µM (inactive)
- GI50 (HCT-15): 19 µM
- GI50 (HOP-62): > 100 µM (inactive)
- GI50 (T47D): 61.1 µM (inactive)
- GI50 (TK-10): 37.8 µM (inactive)

From ChEMBL document CHEMBL1201862, “PubChem BioAssay data set” (2004)
